Source: PMC12040169 (PLOS Biology, 2025)

Assay: in vitro
Conditions: human, hela cells, % viability

SMILES | viability at 28.5 h, 10 µM [%]
Cc1cc(C(=O)Nc2nncs2)c2ccc(F)cc2n1 [CBK297738] | 85.3
O=C(NC1CCN(c2ncccn2)CC1)c1cccnc1O [CBK297739] | 99.7
CCCc1n[nH]c(=S)n1CC(=O)Nc1cc(NC(=O)C2CC2)ccc1C [CBK297740] | 106
CCCc1n[nH]c(=S)n1CC(=O)Nc1cccc(-n2ncc(C(=O)OCC)c2C)c1 [CBK297746] | 90.2
CC(=O)N1CCC(NC(=O)c2cccc(C(N)=O)c2)CC1 [CBK297747] | 115
Cc1ccc(C(=O)NCc2cccc(COCc3ccco3)c2)cc1F [CBK297750] | 83.5
Cc1ccc(C(=O)NCC(O)c2ccc(F)cc2F)cn1 (stereo not shown) [CBK297751] | 89.8
Cc1ccccc1OCC(=O)NCC1(N2CCCCC2)CCCCC1 [CBK297752] | 89.5
O=C(Nc1ccc(N2CCCCC2)c2ccncc12)c1cccc(-n2cnnn2)c1 [CBK297754] | 85.8
COc1cc(CNC(=O)c2cccnc2Sc2ccc(Cl)cc2)ccn1 [CBK297755] | 108
CCn1c(SCc2cc(C)no2)nnc1C1CC1 [CBK297758] | 102
CC1CC(C)CN(C(=O)c2ccccc2NC(=O)C2CC(=O)Nc3ccccc32)C1 (stereo not shown) [CBK297760] | 81.8
C=CCn1c(-c2sc(NC(=O)c3ccc(CNC(=O)NC(C)C)cc3)nc2C)n[nH]c1=S [CBK297764] | 111
O=C1CC(C(=O)Nc2ccccn2)c2ccccc2N1 (stereo not shown) [CBK297771] | 101
O=C(Nc1ccnn1Cc1ccccc1)C1CC(c2cccc(F)c2)=NO1 (stereo not shown) [CBK297772] | 112
CN(C)c1ncccc1CNC(=O)c1ccccn1 [CBK297774] | 81.5
Cc1ccc(NS(=O)(=O)c2cccc(C(=O)NS(=O)(=O)c3ccc(F)cc3F)c2)cc1 [CBK297776] | 70.5
CC(=O)Nc1ccc(C(=O)NC(c2cccs2)C2CCCC2)cc1 (stereo not shown) [CBK297777] | 84.1
CN(C(=O)c1cc(O)nc2ccccc12)c1nccs1 [CBK297778] | 105
CCC(CNC(=O)c1cc(-c2ccco2)nc2c(C(N)=O)ncn12)c1ccccc1 (stereo not shown) [CBK297779] | 94.2
COc1ccc(C2CC(c3ccc(NS(C)(=O)=O)cc3)=NN2C(=O)CCCC(=O)O)cc1 (stereo not shown) [CBK297780] | 116
COc1ccc(OC)c(C2CC(c3ccc(NS(C)(=O)=O)cc3)=NN2C(=O)CCC(=O)O)c1 (stereo not shown) [CBK297781] | 107

SMILES | viability at 28.5 h, 10 µM [%]
CCN(CC)S(=O)(=O)c1ccc(C)c(NS(=O)(=O)c2cc(C(=O)O)n(C)c2)c1 [CBK297782] | 99.5
C=CCn1c(Cc2csc(NC(=O)c3cnc(SC)n3-c3ccccc3)n2)n[nH]c1=S [CBK297786] | 84.3
CC(=O)Nc1ccc(CNc2ccc(C#N)cn2)cc1 [CBK297790] | 97.7
CN(c1ccccc1)S(=O)(=O)c1cccc(NC(=O)Cc2csc(-c3ccco3)n2)c1 [CBK297792] | 75.9
O=C(c1ccc(-n2cccn2)nc1)N1CCN(c2ccccc2O)CC1 [CBK297794] | 83.8
CC1CC1C(=O)NCC(=O)Nc1nc2ccc(OC(F)(F)F)cc2s1 (stereo not shown) [CBK297874] | 98.3
CC(C)C(NC(=O)CSc1n[nH]c(=O)n1Cc1ccccc1)c1ccc2c(c1)OCCCO2 (stereo not shown) [CBK297875] | 106
CN(Cc1ccc2c(c1)OCCO2)C(=O)CSc1n[nH]c(=O)n1Cc1ccccc1 [CBK297876] | 82.1
COc1ccc(-c2nnc(SC(C)C(=O)Nc3cc(C)no3)n2CC2CCCO2)cc1 (stereo not shown) [CBK297879] | 84.8
CCn1c(-c2ccc3c(c2)OCCO3)cnc1SCC(=O)c1cc(C)[nH]c1C [CBK297880] | 89.4
COc1cc(C=Cc2nc3cc(Cl)ccc3s2)ccc1OCC(=O)O [CBK297886] | 96.4
Cc1ccc(-c2n[nH]c(=S)n2CC(=O)N2CCC(C(=O)Nc3ccc4c(c3)OCO4)CC2)cc1 [CBK297887] | 82
C=CCn1c(Cc2csc(NC(=O)CCc3nc4ccccc4c(=O)[nH]3)n2)n[nH]c1=S [CBK297888] | 88.8
Cc1ccc(C(=O)N2CC=C(c3c[nH]c4ncccc34)CC2)cn1 [CBK297889] | 103
C=CCn1c(Cc2csc(NC(=O)c3cccc(NC(C)=O)c3)n2)n[nH]c1=S [CBK297891] | 83.4
CC1CCN(Cc2csc(NC(=O)CCn3c(-c4cccs4)n[nH]c3=S)n2)CC1 [CBK297892] | 92.2
CCOc1ccc(-c2n[nH]c(=S)n2CCC(=O)N2CCCN(Cc3ccc(C#N)cc3)CC2)cc1 [CBK297893] | 95.8
Cc1cccc(NC(=O)CSCc2ccc(Cl)s2)n1 [CBK297895] | 90.4
COc1ccc(C(NC(=O)c2cc3ccccc3[nH]2)C2CC2)cc1 (stereo not shown) [CBK297896] | 97.9
O=C(OCc1nnsc1Cl)c1ccc(C(=O)c2ccccc2)cc1 [CBK297897] | 109
CC(C)C(NC(=O)CN1CSCC1=O)c1ccc(C(C)(C)C)cc1 (stereo not shown) [CBK297899] | 88.6
COc1ccc(C(CNC(=O)Cn2c(-c3cccc(C)c3)n[nH]c2=S)N2CCOCC2)cc1OC (stereo not shown) [CBK297900] | 88.2

SMILES | viability at 28.5 h, 10 µM [%]
C=CCn1c(Cc2csc(NC(=O)c3cc(S(=O)(=O)NC)ccc3C)n2)n[nH]c1=S [CBK297903] | 105
Cc1ccc(-c2n[nH]c(=S)n2CCC(=O)N(C)Cc2ccc(N3CCCCC3)cc2)cc1 [CBK297904] | 106
C=CCn1c(-c2sc(NC(=O)CNC(=O)C(C)(C)C)nc2C)n[nH]c1=S [CBK297907] | 91.2
Cc1[nH]c2ccc(C(=O)N(Cc3ccccc3)C3CC3)cc2c1C [CBK297913] | 89.1
Cc1sc2nc(C(C)Nc3ccc4[nH]c(=O)[nH]c4c3)[nH]c(=O)c2c1C (stereo not shown) [CBK297915] | 80.6
Cc1cc(C(=O)C(C)Sc2nnc(N)s2)c(C)n1-c1ccccc1 (stereo not shown) [CBK297916] | 87
COc1ccc(-c2n[nH]c(=S)n2CCC(=O)NCc2ccc(CN3CCCCC3)cc2)cc1 [CBK297918] | 94.5
O=C(NCc1ccccc1)C1CCN(C(=O)Cc2c(F)cccc2Cl)CC1 [CBK297919] | 96.6
CC(OC(=O)Cc1ccccc1[N+](=O)[O-])c1nnnn1-c1ccccc1 (stereo not shown) [CBK297920] | 97.6
Cc1ccc(C2=NN(C(=O)CNc3cc(F)cc(F)c3)C(c3ccco3)C2)cc1 (stereo not shown) [CBK297922] | 94.2
Cc1ccc2nc(COC(=O)c3ccc(Cn4nnc5ccccc54)cc3)cn2c1 [CBK297923] | 96.6
O=C(Cc1c[nH]c2ccccc12)N1CCCC1c1ccc(F)cc1 (stereo not shown) [CBK297927] | 105
CC(C)Cc1ccc(S(=O)(=O)Nc2ccc(C(=O)O)cc2)cc1 [CBK297930] | 98.4
CC1CN(S(=O)(=O)c2ccc(NC(=O)C3CC(=O)Nc4cc(F)ccc43)cc2)CC(C)O1 (stereo not shown) [CBK297933] | 91.4
Cc1cc(C(=O)CSc2nncs2)c(C)n1C(C)c1ccccc1 (stereo not shown) [CBK297934] | 86.8
O=C(Cc1csc(-c2ccsc2)n1)Nc1nc2c(s1)CCC2 [CBK297935] | 96.8
CC(NC(=O)c1cc2ccccc2c(=O)[nH]1)c1ccc(-c2ccccc2)cc1 (stereo not shown) [CBK297936] | 86.4
CCCNC(=O)C(C)NC(=O)C1=Cc2ccccc2OC1 (stereo not shown) [CBK297937] | 95.2
Cc1[nH]c(=O)[nH]c(=O)c1CCC(=O)OCc1nccn1Cc1ccccc1 [CBK297939] | 82.1
CC(C)c1ccc(NS(=O)(=O)c2ccc(F)c(C(=O)O)c2)cc1 [CBK297940] | 104
COc1ccc(C)cc1N(C(=O)c1ccccn1)c1nc2ccccc2s1 [CBK297944] | 97.7
Cc1nnnn1C(Cc1cccc(F)c1)C(=O)N1CC(C)CC(C)C1 (stereo not shown) [CBK298262] | 96.3

SMILES | viability at 28.5 h, 10 µM [%]
CN(Cc1cc(Br)cs1)C(=O)CCc1c[nH]c2ccccc12 [CBK298268] | 108
COc1cccc(C(CNS(=O)(=O)c2ccc3c(c2)OCCCO3)N(C)C)c1 (stereo not shown) [CBK298270] | 98.2
COc1cccc(-c2nc(-c3ccc4[nH]c(=O)[nH]c4c3)cs2)c1OC [CBK298271] | 108
CN(C)c1nc(Cl)c(C=Cc2cc(C(=O)O)c3ccccc3n2)s1 [CBK298272] | 110
CN1CCN(c2cc(CNC(=O)c3ccnc(Cl)c3)ccn2)CC1 [CBK298275] | 92.4
CN(Cc1ccc2c(c1)OCO2)C(=O)c1cnn2c(-c3ccccc3)ccnc12 [CBK298276] | 95
Cc1ccccc1-c1nnc(-c2ccc(C(=O)N=c3sccn3C)cc2)o1 [CBK298283] | 97.1
CC(NC(=O)c1cc(-c2ccccc2)nc2ccccc12)c1cccc(S(N)(=O)=O)c1 (stereo not shown) [CBK298285] | 79.5
Cc1nccn1-c1ccc(NC(=O)C2CC(=O)N(C3CCCC3)C2)cc1F (stereo not shown) [CBK298286] | 83.1
CCc1nc(NC(=O)c2ccnc(Cl)c2)sc1C [CBK298287] | 101
CN(c1ccccc1C(N)=O)S(=O)(=O)c1ccc(S(=O)(=O)C(F)F)cc1 [CBK298289] | 88.3
CCCCCNC(=O)C1CCN(Cn2c(=O)oc3cc(Cl)ccc32)CC1 [CBK298290] | 86.3
CC(CNC(=O)Cc1ccc(C(F)(F)F)cc1[N+](=O)[O-])N1CCc2ccccc2C1 (stereo not shown) [CBK298292] | 88.8
Cn1c(SCC(=O)N2CCN(c3ccccc3)CC2)nc2cc(Cl)ccc21 [CBK298295] | 99.7
O=C(C(OCC(F)(F)F)c1ccccc1)N1CCN(c2nccs2)CC1 (stereo not shown) [CBK298299] | 91.9
O=C(c1cccc(C(F)(F)F)c1)N1CCN(C(=O)c2ccc3c(c2)CCC3)CC1 [CBK298300] | 91.5
O=C(NCC1Cc2ccccc2O1)c1cccc(NC(=O)c2ccco2)c1 (stereo not shown) [CBK298302] | 83.3
CC(=O)N1CCc2cc(C(=O)N[C@@H](Cc3ccccc3)C(=O)O)ccc21 [CBK298303] | 102
Cc1cc(Cc2cnc(NC(=O)c3ccncc3)s2)ccc1Br [CBK298304] | 106
